Laboratory results as given in patent US8952162B2, “Triazolopyridines as phosphodiesterase inhibitors for treatment of dermal diseases” (Leo Pharma A/S, priority 2008, dated 2015).

Target: Human recombinant PDE4 (Genbank accession no NM—006203) (Homo sapiens, UniProt Q08499)
Assay: PDE4 assay (SPA, cAMP cleavage)
Assay type: biochemical
Conditions: Example 52; human recombinant PDE4, 1 hour incubation, cAMP 1×10^-5M, test compound up to 10 μM; read-out: PDE4 IC50 range
Procedure: At the end of the incubation, the cleavage of the substrate was evaluated by the binding of the AMP product to SPA beads, which generate chemoluminescence when bound to the radioactive tracer. The AMP product inhibited the binding of the radioactive tracer to the beads, and the luminescent signal was competed.

Chain of Human recombinant PDE4 (Genbank accession no NM—006203) (Q08499 1-673 isoform Q08499-2): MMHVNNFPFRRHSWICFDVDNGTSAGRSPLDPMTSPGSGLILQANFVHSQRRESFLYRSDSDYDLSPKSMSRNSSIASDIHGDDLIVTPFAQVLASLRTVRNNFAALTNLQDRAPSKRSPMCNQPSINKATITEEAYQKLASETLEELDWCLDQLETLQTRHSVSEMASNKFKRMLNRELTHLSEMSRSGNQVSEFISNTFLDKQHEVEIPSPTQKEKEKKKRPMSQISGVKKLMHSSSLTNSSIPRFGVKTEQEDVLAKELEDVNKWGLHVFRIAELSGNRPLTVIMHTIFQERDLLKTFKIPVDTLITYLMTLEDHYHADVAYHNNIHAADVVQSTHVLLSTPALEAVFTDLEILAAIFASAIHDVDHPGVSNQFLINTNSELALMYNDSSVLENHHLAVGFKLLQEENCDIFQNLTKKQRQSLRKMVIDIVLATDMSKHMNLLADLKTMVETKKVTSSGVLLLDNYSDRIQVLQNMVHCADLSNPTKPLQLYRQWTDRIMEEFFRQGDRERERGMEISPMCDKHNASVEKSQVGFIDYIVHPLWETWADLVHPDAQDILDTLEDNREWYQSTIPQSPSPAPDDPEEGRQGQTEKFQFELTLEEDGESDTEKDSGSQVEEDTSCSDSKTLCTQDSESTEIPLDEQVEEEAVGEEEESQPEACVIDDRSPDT

| SMILES | IC50 [nM] |
| --- | --- |
| COc1ccc(-c2ccc(OC)c3nc(C4CC4)nn23)cc1 [Compound 103, 2-Cyclopropyl-8-methoxy-5-(4-methoxy-phenyl)-[1,2,4]triazolo[1,5-a]pyridine] | < 500 |
| COc1ccc(-c2ccc(C(F)(F)F)cc2)n2nc(C3CC3)nc12 [Compound 104, 2-Cyclopropyl-8-methoxy-5-(4-trifluoromethyl-phenyl)-[1,2,4]triazolo[1,5-a]pyridine] | 500 to 1000 |
| COc1ccc(-c2ccc(OC)c3nc(C4CC4)nn23)cc1OC [Compound 105, 2-Cyclopropyl-5-(3,4-dimethoxy-phenyl)-8-methoxy-[1,2,4]triazolo[1,5-a]pyridine] | < 500 |
| COc1ccc(-c2cccs2)n2nc(C3CC3)nc12 [Compound 106, 2-Cyclopropyl-8-methoxy-5-thiophen-2-yl-[1,2,4]triazolo[1,5-a]pyridine] | < 500 |
| COc1ccc(-c2cccc(NC(C)=O)c2)n2nc(C3CC3)nc12 [Compound 107, N-[3-(2-Cyclopropyl-8-methoxy-[1,2,4]triazolo[1,5-a]pyridin-5-yl)-phenyl]-acetamide] | > 1000 |
| COc1ccc(-c2cccc(OC(F)(F)F)c2)n2nc(C3CC3)nc12 [Compound 108, 2-Cyclopropyl-8-methoxy-5-(3-trifluoromethoxy-phenyl)-[1,2,4]triazolo[1,5-a]pyridine] | < 500 |
| COc1cccc(-c2ccc(OC)c3nc(C4CC4)nn23)c1 [Compound 109, 2-Cyclopropyl-8-methoxy-5-(3-methoxy-phenyl)-[1,2,4]triazolo[1,5-a]pyridine] | < 500 |
| COc1ccc(-c2ccc(C(C)=O)s2)n2nc(C3CC3)nc12 [Compound 110, 1-[5-(2-Cyclopropyl-8-methoxy-[1,2,4]triazolo[1,5-a]pyridin-5-yl)-thiophen-2-yl]-ethanone] | < 500 |
| COc1ccc(-c2cncnc2)n2nc(C3CC3)nc12 [Compound 111, 2-Cyclopropyl-8-methoxy-5-pyrimidin-5-yl-[1,2,4]triazolo[1,5-a]pyridine] | 500 to 1000 |
| COc1ccc(-c2cccc(S(C)(=O)=O)c2)n2nc(C3CC3)nc12 [Compound 112, 2-Cyclopropyl-5-(3-methanesulfonyl-phenyl)-8-methoxy-[1,2,4]triazolo[1,5-a]pyridine] | 500 to 1000 |
| COc1ccc(-c2cccc(NS(C)(=O)=O)c2)n2nc(C3CC3)nc12 [Compound 113, N-[3-(2-Cyclopropyl-8-methoxy-[1,2,4]triazolo[1,5-a]pyridin-5-yl)-phenyl]-methanesulfonamide] | 500 to 1000 |
| CNC(=O)c1cccc(-c2ccc(OC)c3nc(C4CC4)nn23)c1 [Compound 114, 3-(2-Cyclopropyl-8-methoxy-[1,2,4]triazolo[1,5-a]pyridin-5-yl)-N-methyl-benzamide] | > 1000 |
| COc1ccc(-c2ccc(NC(C)=O)cc2)n2nc(C3CC3)nc12 [Compound 116, N-[4-(2-Cyclopropyl-8-methoxy-[1,2,4]triazolo[1,5-a]pyridin-5-yl)-phenyl]-acetamide] | > 1000 |
| COc1ccc(-c2cccnc2)n2nc(C3CC3)nc12 [Compound 118, 2-Cyclopropyl-8-methoxy-5-pyridin-3-yl-[1,2,4]triazolo[1,5-a]pyridine] | < 500 |
| COc1ccc(-c2ccc(S(C)(=O)=O)cc2)n2nc(C3CC3)nc12 [Compound 120, 2-Cyclopropyl-5-(4-methanesulfonyl-phenyl)-8-methoxy-[1,2,4]triazolo[1,5-a]pyridine] | > 1000 |
| COc1ccc(-c2ccccc2F)n2nc(C3CC3)nc12 [Compound 121, 2-Cyclopropyl-5-(2-fluoro-phenyl)-8-methoxy-[1,2,4]triazolo[1,5-a]pyridine] | 500 to 1000 |
| CCCCOc1cccc(-c2ccc(OC)c3nc(C4CC4)nn23)c1 [Compound 124, 5-(3-Butoxy-phenyl)-2-cyclopropyl-8-methoxy-[1,2,4]triazolo[1,5-a]pyridine] | < 500 |

Next, values leading:

| IC50 [nM] | SMILES |
| --- | --- |
| > 1000 | COCCOc1ccc(-c2ccc(OC)c3nc(C4CC4)nn23)cc1 [Compound 122, 2-Cyclopropyl-8-methoxy-5-[4-(2-methoxy-ethoxy)-phenyl]-[1,2,4]triazolo[1,5-a]pyridine] |
| < 500 | COc1ccc(-c2ccc(C(N)=O)cc2)n2nc(C3CC3)nc12 [Compound 123, 4-(2-Cyclopropyl-8-methoxy-[1,2,4]triazolo[1,5-a]pyridin-5-yl)-benzamide] |
| < 500 | COc1ccc(-c2cccc(F)c2)n2nc(C3CC3)nc12 [Compound 125, 2-Cyclopropyl-5-(3-fluoro-phenyl)-8-methoxy-[1,2,4]triazolo[1,5-a]pyridine] |
| < 500 | COc1ccc(-c2ccncc2)n2nc(C3CC3)nc12 [Compound 126, 2-Cyclopropyl-8-methoxy-5-pyridin-4-yl-[1,2,4]triazolo[1,5-a]pyridine] |
| 500 to 1000 | COc1ccc(-c2ccc(Cl)cc2Cl)n2nc(C3CC3)nc12 [Compound 127, 2-Cyclopropyl-5-(2,4-dichloro-phenyl)-8-methoxy-[1,2,4]triazolo[1,5-a]pyridine] |
| > 1000 | COc1ccc(-c2ccc(S(=O)(=O)N3CCOCC3)cc2)n2nc(C3CC3)nc12 [Compound 128, 2-Cyclopropyl-8-methoxy-5-[4-(morpholine-4-sulfonyl)-phenyl]-[1,2,4]triazolo[1,5-a]pyridine] |
| > 1000 | COc1ccc(-c2ccc(CNC(C)=O)cc2)n2nc(C3CC3)nc12 [Compound 129, N-[4-(2-Cyclopropyl-8-methoxy-[1,2,4]triazolo[1,5-a]pyridin-5-yl)-benzyl]-acetamide] |
| > 1000 | COc1ccc(-c2ccc(CNS(C)(=O)=O)cc2)n2nc(C3CC3)nc12 [Compound 130, N-[4-(2-Cyclopropyl-8-methoxy-[1,2,4]triazolo[1,5-a]pyridin-5-yl)-benzyl]-methanesulfonamide] |
| < 500 | COc1ccc(-c2ccc(F)cc2)n2nc(C3CC3)nc12 [Compound 131, 2-Cyclopropyl-5-(4-fluoro-phenyl)-8-methoxy-[1,2,4]triazolo[1,5-a]pyridine] |
| < 500 | COc1ccc(-c2ccc(C#N)cc2)n2nc(C3CC3)nc12 [Compound 132, 4-(2-Cyclopropyl-8-methoxy-[1,2,4]triazolo[1,5-a]pyridin-5-yl)-benzonitrile] |
| 500 to 1000 | COC(=O)CCc1ccc(-c2ccc(OC)c3nc(C4CC4)nn23)cc1 [Compound 133, 3-[4-(2-Cyclopropyl-8-methoxy-[1,2,4]triazolo[1,5-a]pyridin-5-yl)-phenyl]-propionic acid methyl ester] |
| > 1000 | COc1ccc(-c2ccc(S(=O)(=O)NCCO)cc2)n2nc(C3CC3)nc12 [Compound 134, 4-(2-Cyclopropyl-8-methoxy-[1,2,4]triazolo[1,5-a]pyridin-5-yl)-N-(2-hydroxy-ethyl)-benzenesulfonamide] |
| < 500 | COc1ccc(N2CCCCC2)n2nc(C3CC3)nc12 [Compound 143, 2-Cyclopropyl-8-methoxy-5-piperidin-1-yl-[1,2,4]triazolo[1,5-a]pyridine] |

Same assay, conditions: Example 53; PDE4 assay as in example 52; read-out: PDE4 IC50 range

| IC50 [nM] | SMILES |
| --- | --- |
| < 500 | CC(=O)c1cccc(-c2ccc(O)c3nc(C4CC4)nn23)c1 [Compound 144, 1-[3-(2-Cyclopropyl-8-hydroxy-[1,2,4]triazolo[1,5-a]pyridin-5-yl)-phenyl]-ethanone] |
| 500 to 1000 | COc1ccc(-c2cc(C#N)ccn2)n2nc(C3CC3)nc12 [Compound 145, 2-(2-Cyclopropyl-8-methoxy-[1,2,4]triazolo[1,5-a]pyridin-5-yl)-isonicotinonitrile] |
